{"source": "patent US7708999B2", "about": "“Remedies for arthritis” (Kyowa Hakko Kirin Co., Ltd., priority 2001, dated 2010)", "key": {"[1]": {"test_system": "mouse collagen-induced arthritis model", "test": "Mouse collagen-induced arthritis model", "format": "in vivo", "conditions": "positive control, 0.3 mg/mL, 1 mL per 100 g orally", "protocol": "The mouse collagen-induced arthritis model was prepared in the following manner according to the method of Kamada et al., (Kamada H. et al., Jpn. J. Pharmacol., 70, 169-175, 1996) using DBA/1J mice (male, 7 weeks old, Japan Charles River).\nA bovine cartilage-derived type II collagen solution (manufactured by Collagen Gijutsu Kenshu) was mixed with a Freund's complete adjuvant (manufactured by Iatron) under ice cooling to form an emulsion which was adjusted such that the final concentration of the type II collagen became 1.5 mg/mL. The emulsion was intradermally injected in amount of 100 μL at the base of the tail of the mouse for sensitization. Twenty-one days later, the additional immunization was performed in the same manner. One group consisted of 10 mice. Anti-FGF-8 neutralizing antibody KM1334 was dissolved in a saline (manufactured by Otsuka Seiyaku Kojo) to a final concentration of 2 mg/mL, and the solution was intraperitoneally administered to a KM1334 administrated group at a dose of 200 μL for each mouse once a day on days 21, 25, 28, 32, 35 and 39 from the initial sensitization of the mouse collagen-induced arthritis model. […] The change with time of edemas of all limbs in collagen-induced arthritis was evaluated by the scoring from 0 to 4 in each limb to a total of 16 at the maximum score in all limbs. […]"}, "[2]": {"test_system": "rat adjuvant arthritis model", "test": "Rat adjuvant arthritis model", "format": "in vivo", "protocol": "The rat adjuvant arthritis model was performed in the following manner according to the method of Pearson et al. (Pearson CM. et al., Arthritis Rheum., 5, 654-658, 1962) using Lewis rats (female, 8 weeks old, Japan Charles River).\nMycobacterium butyricum (manufactured by Difco) was suspended in a liquid paraffin (manufactured by Wako Pure Chemical Industries, Ltd.) to a final concentration of 6 mg/mL, and sterilized with a autoclave. The resulting solution was intradermally injected into the rat right hind pad in an amount of 100 μL for sensitization. One group consisted of 8 to 10 rats. Anti-FGF-8 neutralizing antibody KM1334 was dissolved in saline to a final concentration of 2 mg/mL. The solution was intraperitoneally administered to a KM1334 administrated group once a day at a dose of 0.5 mL per 100 g of the body weight for each rat on the sensitization day of the rat adjuvant arthritis model and on days 3, 7, 10, 14 and 17 from the sensitization. To saline administrated group, only saline was intraperitoneally administered instead of the anti-FGF-8 neutralizing antibody KM1334 solution. Further, sodium diclofenac, an antiinflammatory agent, was dissolved in a 0.5 w/v % methyl cellulose solution to a final concentration of 0.3 mg/mL, and the solution was orally administered to a sodium diclofenac administrated group as a positive control once a day at a dose of 1 mL per 100 g of the body weight on days 4, 7 to 11 and 14 to 18 from the adjuvant sensitization day. 50 mg of methotrexate® for injection (manufactured by Wyeth Japan) as a metabolic antagonist was dissolved in a 0.5 w/v % methyl cellulose solution to a final concentration of 0.01 mg/mL, and the solution was administered to a methotrexate administrated group in the same manner as in the sodium diclofenac administrated group. Prednisolone (manufactured by Sigma-Aldrich), a steroidal agent, was suspended in a 0.5 w/v % methyl cellulose solution to a final concentration of 0.3 mg/mL, and the suspension was administered to a prednisolone administrated group in the same manner as in the sodium diclofenac administrated group. Further, a 0.5 w/v % methyl cellulose solution alone was orally administered to a solvent administrated group in the same manner. An untreated group was used, and it was not subjected to sensitization with Mycobacterium butyricum and administration of an agent. The volumes of the adjuvant-treated paw and the adjuvant-untreated paw were measured as time goes by using a device for measuring edemas of rat hind paw (TK-101, manufactured by Unicom).\nUsing urine collected for 24 hours at day 20 and day 21 after the sensitization, the amounts of glycosaminoglycan, deoxypyridinoline, hydroxyproline and creatinine in urine were measured. The amount of glycosaminoglycan in urine was measured by the DMMB method described in Example 1. The amount of hydroxyproline in urine was measured by the method of Ikeda et al. (Ikeda Shingo et al., Tokyo Eiken Nenpo, 36 277-282, 1985). That is, 0.8 mL of hydrochloric acid for amino acid analysis (manufactured by Kanto Kagaku) was added to 0.8 mL of urine to hydrolyze at 110° C. for 15 hours. To 0.5 mL of the hydrolyzed sample was added 2 mL of a 1.2 mol/L sodium hydroxide solution for neutralization. 1 mL of isopropanol was added to 0.5 mL of the neutralized sample, and 1 ml of an oxidant solution was added. The mixture was stirred well, and allowed to stand at room temperature for 5 minutes. […]"}}, "data": [{"smiles": "O=C(O)Cc1ccccc1Nc1c(Cl)cccc1Cl", "note": "[sodium diclofenac]", "values": [{"measurement": "degree of the inhibition of the arthritic score compared with the KM1334 administrated group", "setting": "[1]", "result": "the same"}, {"measurement": "Bone destruction score", "setting": "[2]; Table 2, soft X-ray of calcaneus, adjuvant-untreated paw, day 21, maximum 5, mean ± standard error, oral comparators", "result": "3.1 ± 0.6"}, {"measurement": "Bone destruction score (% inhibition)", "setting": "[2]; Table 2, vs solvent group", "result": 33, "unit": "%"}, {"measurement": "inhibition of the increase in paw volume, adjuvant-untreated paw", "setting": "[2]; day 21, oral, 1 mL per 100 g: sodium diclofenac 0.3 mg/mL, methotrexate 0.01 mg/mL, prednisolone 0.3 mg/mL, vs solvent group", "result": 45, "unit": "%"}, {"measurement": "inhibition of the increase (decrease) in amount of glycosaminoglycan in urine", "setting": "[2]; urine day 20 to 21, oral comparators vs solvent group, diclofenac and prednisolone not significant", "result": 40, "unit": "%"}, {"measurement": "inhibition of the increase (decrease) in amount of deoxypyridinoline in urine", "setting": "[2]; urine day 20 to 21, oral comparators vs solvent group, methotrexate and prednisolone not significant", "result": 88, "unit": "%"}]}]}
